Measured values reported in ChEMBL document CHEMBL5465560, “Selectivity Literature for EUbOPEN Chemogenomic Library” (2024).

Assays:
[1] = test system: Leucine-rich repeat serine/threonine-protein kinase 2 (Homo sapiens), Q5S007 [G2019S]; details: at 10 µM
[2] = target: Ribosomal protein S6 kinase alpha-2 (Homo sapiens) (UniProt Q15349); details: at 10 µM
[3] = target: T1, Dual specificity mitogen-activated protein kinase kinase 7 (Homo sapiens) (UniProt O14733); test: Selectivity interaction (Kinase screening (Nanosyn)) EUB0000604a MAP2K7
T1 sequence (whole entry): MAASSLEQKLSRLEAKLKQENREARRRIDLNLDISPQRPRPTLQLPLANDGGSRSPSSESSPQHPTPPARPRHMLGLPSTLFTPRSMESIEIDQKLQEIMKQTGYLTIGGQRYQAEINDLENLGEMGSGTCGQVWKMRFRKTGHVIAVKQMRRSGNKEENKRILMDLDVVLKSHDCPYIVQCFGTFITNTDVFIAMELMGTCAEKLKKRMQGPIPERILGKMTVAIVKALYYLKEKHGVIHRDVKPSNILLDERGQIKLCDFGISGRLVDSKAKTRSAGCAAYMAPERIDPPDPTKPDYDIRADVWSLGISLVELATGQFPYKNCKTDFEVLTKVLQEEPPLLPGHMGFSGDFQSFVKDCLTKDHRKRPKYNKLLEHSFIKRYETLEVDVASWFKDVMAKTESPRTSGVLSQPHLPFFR

D(2) dopamine receptor = D(2) dopamine receptor (Homo sapiens, UniProt P14416); test: Selectivity interaction (Panel of kinases, GPCRs, ion channels and transporters (enzymatic assay)) EUB0000266bCl DRD2
D(2) dopamine receptor, sequence (P14416 whole entry): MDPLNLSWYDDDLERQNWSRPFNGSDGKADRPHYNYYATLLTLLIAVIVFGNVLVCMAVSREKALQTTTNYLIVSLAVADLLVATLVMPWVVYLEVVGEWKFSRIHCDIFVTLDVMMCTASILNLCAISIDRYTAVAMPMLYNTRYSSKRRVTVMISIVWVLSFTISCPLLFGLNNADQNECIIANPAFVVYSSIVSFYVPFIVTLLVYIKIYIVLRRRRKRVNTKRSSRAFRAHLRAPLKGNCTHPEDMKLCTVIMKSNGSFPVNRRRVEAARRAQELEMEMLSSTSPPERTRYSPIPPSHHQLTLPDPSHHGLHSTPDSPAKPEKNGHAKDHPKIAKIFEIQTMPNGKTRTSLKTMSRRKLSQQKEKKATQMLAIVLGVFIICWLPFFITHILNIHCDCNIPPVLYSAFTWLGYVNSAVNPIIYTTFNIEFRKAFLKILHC

[4] = target: T2, Histone-lysine N-methyltransferase SMYD3 (Homo sapiens) (UniProt Q9H7B4); details: at 10 µM
T2 sequence (whole entry): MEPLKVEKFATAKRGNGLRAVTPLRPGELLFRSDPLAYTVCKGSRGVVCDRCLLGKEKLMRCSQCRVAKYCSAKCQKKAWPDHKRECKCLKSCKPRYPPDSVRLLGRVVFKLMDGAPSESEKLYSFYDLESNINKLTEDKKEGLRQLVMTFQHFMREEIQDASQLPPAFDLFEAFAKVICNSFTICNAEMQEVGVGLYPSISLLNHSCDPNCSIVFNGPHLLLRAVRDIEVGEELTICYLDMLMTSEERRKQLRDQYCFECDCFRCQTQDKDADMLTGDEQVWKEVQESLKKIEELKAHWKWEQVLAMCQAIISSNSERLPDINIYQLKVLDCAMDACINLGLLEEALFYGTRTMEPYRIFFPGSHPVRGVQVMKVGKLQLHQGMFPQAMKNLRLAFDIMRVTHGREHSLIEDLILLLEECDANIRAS

[5] = target: T3, Tyrosine-protein kinase JAK3 (Homo sapiens) (UniProt P52333); details: at 10 µM
T3 sequence (whole entry): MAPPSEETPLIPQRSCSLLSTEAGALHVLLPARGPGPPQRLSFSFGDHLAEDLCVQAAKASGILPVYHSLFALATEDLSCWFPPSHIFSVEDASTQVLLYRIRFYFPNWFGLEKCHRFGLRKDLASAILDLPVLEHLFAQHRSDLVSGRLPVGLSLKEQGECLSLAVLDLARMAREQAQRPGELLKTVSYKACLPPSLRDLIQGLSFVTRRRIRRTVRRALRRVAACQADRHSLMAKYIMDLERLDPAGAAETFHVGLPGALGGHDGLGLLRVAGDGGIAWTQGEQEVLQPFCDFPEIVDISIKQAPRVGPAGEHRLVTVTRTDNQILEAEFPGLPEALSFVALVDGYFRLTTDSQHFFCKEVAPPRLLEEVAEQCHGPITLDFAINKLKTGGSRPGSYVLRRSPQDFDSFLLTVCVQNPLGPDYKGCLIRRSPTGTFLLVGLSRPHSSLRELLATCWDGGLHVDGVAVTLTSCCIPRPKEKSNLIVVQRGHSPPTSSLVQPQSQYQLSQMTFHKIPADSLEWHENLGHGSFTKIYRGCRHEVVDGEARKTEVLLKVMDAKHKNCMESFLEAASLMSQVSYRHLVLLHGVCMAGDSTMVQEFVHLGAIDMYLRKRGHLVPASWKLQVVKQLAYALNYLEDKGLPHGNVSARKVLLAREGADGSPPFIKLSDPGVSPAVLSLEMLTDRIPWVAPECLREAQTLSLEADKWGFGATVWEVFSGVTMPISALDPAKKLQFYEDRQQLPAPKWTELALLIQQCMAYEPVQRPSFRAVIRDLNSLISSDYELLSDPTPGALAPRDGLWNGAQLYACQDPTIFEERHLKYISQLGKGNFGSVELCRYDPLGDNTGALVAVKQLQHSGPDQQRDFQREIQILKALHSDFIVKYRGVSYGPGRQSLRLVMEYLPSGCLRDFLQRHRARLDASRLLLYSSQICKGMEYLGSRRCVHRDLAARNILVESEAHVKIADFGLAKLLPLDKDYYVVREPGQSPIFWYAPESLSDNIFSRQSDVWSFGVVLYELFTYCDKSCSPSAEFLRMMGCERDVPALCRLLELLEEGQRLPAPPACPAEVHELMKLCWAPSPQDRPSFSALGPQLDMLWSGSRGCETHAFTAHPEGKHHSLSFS

[6] = target: Myosin-IIIa (Homo sapiens) (UniProt Q8NEV4); test: Selectivity interaction (KinomeScan (DiscoverX)) EUB0000655a MYO3A; details: at 10 µM
Myosin-IIIa (Homo sapiens), sequence (Q8NEV4 whole entry): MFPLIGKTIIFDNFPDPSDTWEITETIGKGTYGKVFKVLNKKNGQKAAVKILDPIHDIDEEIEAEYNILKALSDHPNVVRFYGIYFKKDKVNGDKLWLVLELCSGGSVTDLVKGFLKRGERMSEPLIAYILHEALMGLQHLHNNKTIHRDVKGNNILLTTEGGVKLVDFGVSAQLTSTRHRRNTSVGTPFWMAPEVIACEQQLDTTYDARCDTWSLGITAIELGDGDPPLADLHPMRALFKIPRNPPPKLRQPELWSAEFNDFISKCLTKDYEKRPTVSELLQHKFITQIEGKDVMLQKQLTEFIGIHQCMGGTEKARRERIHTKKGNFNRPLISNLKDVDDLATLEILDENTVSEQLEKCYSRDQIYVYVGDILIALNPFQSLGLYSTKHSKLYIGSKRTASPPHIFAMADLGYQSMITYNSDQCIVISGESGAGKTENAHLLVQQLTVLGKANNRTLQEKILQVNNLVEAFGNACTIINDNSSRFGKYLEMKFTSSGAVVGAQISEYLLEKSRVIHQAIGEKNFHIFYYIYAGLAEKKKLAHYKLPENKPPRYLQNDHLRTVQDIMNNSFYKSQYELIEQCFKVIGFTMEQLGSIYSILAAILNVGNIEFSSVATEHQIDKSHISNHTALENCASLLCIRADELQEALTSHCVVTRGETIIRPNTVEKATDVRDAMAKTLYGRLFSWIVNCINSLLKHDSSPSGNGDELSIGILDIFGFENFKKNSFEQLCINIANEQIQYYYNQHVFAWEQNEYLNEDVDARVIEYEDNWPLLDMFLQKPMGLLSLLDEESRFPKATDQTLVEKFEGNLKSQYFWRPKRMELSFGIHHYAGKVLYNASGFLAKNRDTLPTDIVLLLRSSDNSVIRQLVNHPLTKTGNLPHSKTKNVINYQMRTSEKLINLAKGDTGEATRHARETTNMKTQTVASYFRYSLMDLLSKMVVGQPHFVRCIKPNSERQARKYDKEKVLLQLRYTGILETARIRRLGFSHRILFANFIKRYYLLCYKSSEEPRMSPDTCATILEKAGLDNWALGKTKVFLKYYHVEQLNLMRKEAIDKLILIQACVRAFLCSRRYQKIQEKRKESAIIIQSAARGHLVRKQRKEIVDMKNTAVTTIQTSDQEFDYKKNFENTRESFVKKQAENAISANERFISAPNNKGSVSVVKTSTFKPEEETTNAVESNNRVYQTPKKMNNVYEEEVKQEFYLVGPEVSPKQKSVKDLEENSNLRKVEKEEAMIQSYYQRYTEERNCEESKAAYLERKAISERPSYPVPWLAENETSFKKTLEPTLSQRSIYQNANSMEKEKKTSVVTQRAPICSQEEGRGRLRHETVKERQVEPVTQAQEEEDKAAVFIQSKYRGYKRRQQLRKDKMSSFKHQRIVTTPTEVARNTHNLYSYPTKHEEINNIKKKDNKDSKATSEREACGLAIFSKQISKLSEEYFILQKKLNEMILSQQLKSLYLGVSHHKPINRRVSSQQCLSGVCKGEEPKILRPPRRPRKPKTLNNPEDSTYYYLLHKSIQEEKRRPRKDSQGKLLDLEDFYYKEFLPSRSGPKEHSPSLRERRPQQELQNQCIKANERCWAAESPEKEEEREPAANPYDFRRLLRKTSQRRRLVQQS

[7] = target: T4, Serine/threonine-protein kinase Sgk3 (Homo sapiens) (UniProt Q96BR1); test: Selectivity interaction (KinomeScan (DiscoverX)) EUB0001619a SGK3; details: at 1 µM
T4 sequence (whole entry): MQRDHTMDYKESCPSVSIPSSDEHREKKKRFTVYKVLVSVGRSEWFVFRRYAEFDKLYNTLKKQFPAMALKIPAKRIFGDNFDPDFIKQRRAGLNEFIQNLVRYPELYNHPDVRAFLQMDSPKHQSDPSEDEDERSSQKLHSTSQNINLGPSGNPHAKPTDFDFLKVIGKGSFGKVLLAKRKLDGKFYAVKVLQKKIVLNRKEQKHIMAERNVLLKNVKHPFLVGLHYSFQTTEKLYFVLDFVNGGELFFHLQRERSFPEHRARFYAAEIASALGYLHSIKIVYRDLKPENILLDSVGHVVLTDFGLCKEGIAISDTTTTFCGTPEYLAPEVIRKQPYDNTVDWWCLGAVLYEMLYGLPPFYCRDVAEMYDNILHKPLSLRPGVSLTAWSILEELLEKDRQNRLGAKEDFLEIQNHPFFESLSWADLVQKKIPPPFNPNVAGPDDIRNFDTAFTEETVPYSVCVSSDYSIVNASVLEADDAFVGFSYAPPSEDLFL

Leucine-rich repeat serine/threonine-protein kinase 2 (Homo sapiens), Q5S007 [G2019S], sequence (Q5S007 whole entry G2019S): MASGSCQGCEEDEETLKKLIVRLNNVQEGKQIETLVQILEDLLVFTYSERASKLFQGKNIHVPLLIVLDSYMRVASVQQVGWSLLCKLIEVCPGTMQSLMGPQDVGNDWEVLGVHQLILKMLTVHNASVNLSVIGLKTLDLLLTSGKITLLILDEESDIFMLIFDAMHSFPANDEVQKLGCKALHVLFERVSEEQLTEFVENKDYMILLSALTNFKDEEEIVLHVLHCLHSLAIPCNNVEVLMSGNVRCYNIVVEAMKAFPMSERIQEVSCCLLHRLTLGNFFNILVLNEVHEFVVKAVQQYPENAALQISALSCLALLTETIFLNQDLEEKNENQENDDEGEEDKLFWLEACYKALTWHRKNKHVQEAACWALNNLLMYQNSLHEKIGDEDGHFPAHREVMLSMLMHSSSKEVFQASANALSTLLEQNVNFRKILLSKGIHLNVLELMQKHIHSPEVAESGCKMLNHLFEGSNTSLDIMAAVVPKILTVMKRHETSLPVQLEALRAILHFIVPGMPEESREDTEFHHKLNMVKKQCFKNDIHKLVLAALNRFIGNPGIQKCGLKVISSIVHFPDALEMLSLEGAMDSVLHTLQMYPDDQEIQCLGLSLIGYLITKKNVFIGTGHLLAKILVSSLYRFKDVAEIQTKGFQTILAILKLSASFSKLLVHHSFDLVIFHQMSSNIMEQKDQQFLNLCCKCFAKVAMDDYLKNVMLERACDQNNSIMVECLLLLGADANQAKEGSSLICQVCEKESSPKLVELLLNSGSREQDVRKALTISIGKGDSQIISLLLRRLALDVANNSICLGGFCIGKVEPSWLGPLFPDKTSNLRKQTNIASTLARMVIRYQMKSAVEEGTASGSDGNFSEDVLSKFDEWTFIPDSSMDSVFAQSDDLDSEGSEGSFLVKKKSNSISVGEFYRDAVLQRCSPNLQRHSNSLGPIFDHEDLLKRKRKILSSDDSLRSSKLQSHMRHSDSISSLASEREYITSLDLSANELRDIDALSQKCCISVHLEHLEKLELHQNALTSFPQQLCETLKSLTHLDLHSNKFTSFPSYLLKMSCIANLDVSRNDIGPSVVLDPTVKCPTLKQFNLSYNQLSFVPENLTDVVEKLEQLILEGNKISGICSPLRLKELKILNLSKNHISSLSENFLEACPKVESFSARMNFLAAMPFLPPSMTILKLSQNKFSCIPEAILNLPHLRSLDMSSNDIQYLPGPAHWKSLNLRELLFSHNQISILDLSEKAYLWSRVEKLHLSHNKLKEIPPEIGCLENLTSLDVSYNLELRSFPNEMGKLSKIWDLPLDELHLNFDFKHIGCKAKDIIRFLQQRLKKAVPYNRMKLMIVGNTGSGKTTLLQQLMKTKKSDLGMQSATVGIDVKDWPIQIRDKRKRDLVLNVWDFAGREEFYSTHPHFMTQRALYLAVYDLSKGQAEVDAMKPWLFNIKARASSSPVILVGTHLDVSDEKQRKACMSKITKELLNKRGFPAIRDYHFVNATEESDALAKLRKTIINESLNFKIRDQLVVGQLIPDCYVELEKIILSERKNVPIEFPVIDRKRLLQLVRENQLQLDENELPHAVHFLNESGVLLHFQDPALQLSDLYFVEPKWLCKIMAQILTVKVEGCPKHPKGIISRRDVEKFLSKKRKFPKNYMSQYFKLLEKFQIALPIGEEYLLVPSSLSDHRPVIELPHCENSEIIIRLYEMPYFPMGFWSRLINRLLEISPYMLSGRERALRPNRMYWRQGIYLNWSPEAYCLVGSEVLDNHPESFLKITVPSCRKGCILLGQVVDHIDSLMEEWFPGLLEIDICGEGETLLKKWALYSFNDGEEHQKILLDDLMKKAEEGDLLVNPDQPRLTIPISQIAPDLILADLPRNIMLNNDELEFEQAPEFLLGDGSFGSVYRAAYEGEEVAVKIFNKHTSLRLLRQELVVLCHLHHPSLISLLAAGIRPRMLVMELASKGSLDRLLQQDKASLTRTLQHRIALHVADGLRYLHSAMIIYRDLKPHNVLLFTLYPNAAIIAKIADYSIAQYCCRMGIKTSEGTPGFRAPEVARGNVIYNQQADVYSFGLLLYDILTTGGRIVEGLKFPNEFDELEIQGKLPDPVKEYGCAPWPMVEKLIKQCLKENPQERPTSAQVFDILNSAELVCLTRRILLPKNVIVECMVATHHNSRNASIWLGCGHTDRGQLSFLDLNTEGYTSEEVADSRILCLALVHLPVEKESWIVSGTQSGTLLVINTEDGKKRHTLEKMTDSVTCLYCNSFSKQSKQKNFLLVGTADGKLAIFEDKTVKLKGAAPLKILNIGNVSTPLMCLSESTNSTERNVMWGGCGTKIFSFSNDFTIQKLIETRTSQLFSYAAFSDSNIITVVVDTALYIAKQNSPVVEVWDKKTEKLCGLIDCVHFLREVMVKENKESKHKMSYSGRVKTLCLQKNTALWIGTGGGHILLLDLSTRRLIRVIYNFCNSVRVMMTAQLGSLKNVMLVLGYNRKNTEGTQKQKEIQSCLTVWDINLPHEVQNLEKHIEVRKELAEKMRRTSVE

Molecule `Cc1cc([C@@H](C)Nc2ccccc2C(=O)O)c2nc(N3CCOCC3)cc(=O)n2c1` [AZD-6482] has a % of control [1] of 100% and a % of control [2] of 97%.
Molecule `Cc1cnc(Nc2ccc(F)cc2Cl)nc1-c1c[nH]c(C(=O)N[C@H](CO)c2cccc(Cl)c2)c1` has a % of inhibition [3] of 6%.
`CCn1c(-c2nc3cc(C(=O)N4CCCC(N)C4)ccc3n2C)cc2ccccc21` (stereo not drawn) gave a pXC50 (D(2) dopamine receptor) of less than 4 M.
For `CNCCN1CCC(c2cc(CN(C)C(=O)c3cccc(Oc4ccccc4)c3)ccn2)CC1`, the % activity [4] was greater than 90%.
In the case of `CCN(CC)CCCCNc1ncc2cc(-c3cc(OC)cc(OC)c3)c(NC(=O)NC(C)(C)C)nc2n1`, the % of control [5] is reported as 100%.
`CN(C)CCOc1ccc(-c2nc(-c3ccncc3)c(-c3ccc4c(c3)CC/C4=N\O)[nH]2)cc1` was tested, and the % of control [6] was 94%.
`N#Cc1cccc(-c2c[nH]c3ncnc(N4CCOCC4)c23)c1` showed a % of control [7] of 100%.
